Data from US9732047B2, “N-alkoxyamide conjugates as imaging agents” (Lantheus Medical Imaging, Inc., priority 2008, dated 2017).
Like-named read-outs stand apart in the source and are kept apart here.

Key:
aorta [1] = assay: In vivo rabbit aorta MR imaging; design: species or system New Zealand White male rabbits; conditions: atherosclerotic rabbit, 0.1 mmol/kg via marginal ear vein, MR at 4.7 T, shortly after injection
Procedure: A series of pre-injection images were acquired. The rabbit was then injected with test compound (i.e., Example 31) at 0.1 mmol/kg via the marginal ear vein and images acquired at specified time intervals. All images were acquired at 4.7 T using an 8.5 cm field of view, 256×256 matrix using a black blood, flow-suppressed spin-echo method.

[2] = system: Aorta bearing atherosclerotic plaque; assay: Ex-vivo blood vessel binding assay; design: species or system New Zealand white rabbits; conditions: 153Gd-labeled compound 0.135 μCi in PBS, 2 h at 37° C., plaque-bearing rabbit aorta sections; percentage of initial activity
Procedure: Aorta bearing atherosclerotic plaque was obtained from New Zealand white rabbits that were balloon stripped along the abdominal aorta and placed on a high fat diet (0.5% cholesterol) for 16-22 weeks. Vascular injury was produced with a 4-F Fogarty catheter along the abdominal aorta and right iliofemoral artery. This procedure generates an accelerated complex lesion development with a lipid rich core covered by a fibrous cap in rabbits. Harvested aorta sections (0.5 cm) were incubated with 0.135 μCi of ^153Gd-labeled compound diluted in phosphate buffered saline (450 μL) for 2 h at 37° C. The supernatant was removed and analyzed by HPLC to assay compound stability. The tissue section was then washed with phosphate buffered saline (3×10 mL), then resuspended (10 mL) and incubated at 37° C. an additional 1 h. The supernatant was then removed, the washing process repeated and the tissue finally counted on a gamma counter. The amount of compound bound to the tissue was determined as a percentage of the initial activity according to the following formula: […]

aorta [3] = conditions: 60 min post injection; for aorta (% ID/g ± SD): 0.01-0.05 mCi/kg bolus via marginal ear vein
Procedure: Atherosclerosis was induced in New Zealand White male rabbits (3 kg) with aortic balloon endothelial injury (vide supra) followed by feeding a 0.5% cholesterol diet for 22 weeks. Test compounds were administered at 0.01-0.05 mCi/kg to anesthetized rabbits in a single, bolus injection via the marginal ear vein. Blood samples were collected from the central ear artery at 0, 2, 5, 7, 10, 15, 30 and 60 min post injection. Rabbits were euthanized at 60 min post injection for tissue harvesting (blood, muscle, bile, urine, kidney, liver, spleen, heart, lung, colon, small intestine, stomach, testes and in some cases, sternum, ligament and right ear). Abdominal aorta (upper, middle, and lower) and left and right femoral arteries were also collected. All samples were weighed and assayed for radioactivity; uptake is expressed as percentage of injected dose per gram of tissue (% ID/g).

aorta [4] = conditions: 60 min post injection
Procedure: The apolipoprotein E (ApoE) knockout mouse is a model of hypercholesterolemia that develops atherosclerotic lesions in the brachiocephalic artery, the aortic arch and the abdominal aorta. Mice were fed a high-fat diet to accelerate plaque formation and compounds were tested in the mice between 35-42 weeks on diet. Test compounds were administered at 0.3-0.4 mCi/kg to anesthetized mice in a single, bolus injection via the tail vein. Blood samples were collected via the tail between 0-30 min post injection for pharmacokinetic analysis and mice were euthanized by CO2 at 60 min for tissue harvesting. The aorta was first flushed with saline through the left ventricle exiting via the femoral vein then removed from the heart to the renal bifurcation; additional biological samples were also collected (blood, muscle, liver, kidney, bile, urine, heart, femur, reproductive organ, lung, spleen and innominate artery). All samples were weighed and assayed for radioactivity; uptake is expressed as a percentage of injected dose per gram of tissue (% ID/g).

Row | SMILES | relative image intensity in the aorta (aorta [1]) | % bound [2] [%] | aorta (% ID/g ± SD) (aorta [3]; control rabbit (non-plaque bearing)) [% ID/g] | aorta:blood (aorta [3]; control rabbit) | aorta:heart (aorta [3]; control rabbit) | aorta (% ID/g ± SD) (aorta [3]; plaque rabbit) [% ID/g] | aorta:blood (aorta [3]; plaque rabbit) | aorta:heart (aorta [3]; plaque rabbit) | aorta uptake (% ID/g) (aorta [4]; ApoE mice on high-fat diet 35-42 weeks, 0.3-0.4 mCi/kg bolus via tail vein) | aorta:blood (aorta [4]; ApoE mice, uptake ratio) | aorta:heart (aorta [4]; ApoE mice, uptake ratio)
1 | CC(C)C[C@@H](N)C(=O)NOCc1ccc(CNC(=O)CN2CCN(CC(=O)[O-])CCN(CC(=O)[O-])CCN(CC(=O)[O-])CC2)cc1.[Gd+3] [Example 31] | marked increase of relative image intensity in the aorta |  |  |  |  |  |  |  |  |  | 
2 | N[C@H](Cc1ccc2ccccc2c1)C(=O)NOCc1ccc(CNC(=O)CN2CCN(CC(=O)[O-])CCN(CC(=O)[O-])CCN(CC(=O)[O-])CC2)cc1.[153Gd+3] [Example 60] |  | 30.9 | 0.187 ± 0.022 | 3.8 | 6.4 | 0.108 ± 0.012 | 2.4 | 4.0 | 18.4 ± 2.4 | 9.8 | 25.2
